According to patent US12077503B2, “Substituted cyclic amides and their use as herbicides” (FMC CORPORATION, priority 2015, dated 2024):

Experiments:
Assay type in all cases: in vivo
corn (Zea mays) [1] = experiment: Test A preemergence; conditions: for Plant response rating, Corn: 125 g ai/ha, preemergence, 0 to 100 scale (0 no effect, 100 complete control); for Corn plant response rating (0 to 100 scale): Preemergence, 500 g ai/ha, 0 is no effect, 100 is complete control
In short: (§1)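 Seeds sprayed preemergence with a directed soil spray, or plants at 2 to 10 cm height and one- to two-leaf stage sprayed postemergence, with test chemicals in a non-phytotoxic solvent mixture containing surfactant, in loam soil–sand blend. Injury rated visually against untreated controls after about 10 d in greenhouse, 0 (no effect) to 100 (complete control).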

[2] = test system: wheat (Triticum aestivum); experiment: Test A preemergence; conditions: for Plant response rating, Wheat: 125 g ai/ha, preemergence, 0 to 100 scale (0 no effect, 100 complete control); for Wheat plant response rating (0 to 100 scale): Preemergence, 500 g ai/ha, 0 is no effect, 100 is complete control
In short: as §1

[3] = test system: barnyardgrass (Echinochloa crus-galli); experiment: Test A preemergence; conditions: for Plant response rating, Barnyardgrass: 125 g ai/ha, preemergence, 0 to 100 scale (0 no effect, 100 complete control); for Barnyardgrass plant response rating (0 to 100 scale): Preemergence, 500 g ai/ha, 0 is no effect, 100 is complete control
In short: as §1

[4] = test system: giant foxtail (Setaria faberii); experiment: Test A preemergence; conditions: for Plant response rating, Foxtail, Giant: 125 g ai/ha, preemergence, 0 to 100 scale (0 no effect, 100 complete control); for Foxtail, Giant plant response rating (0 to 100 scale): Preemergence, 500 g ai/ha, 0 is no effect, 100 is complete control
In short: as §1

[5] = test system: velvetleaf (Abutilon theophrasti); experiment: Test A preemergence; conditions: for Plant response rating, Velvetleaf: 125 g ai/ha, preemergence, 0 to 100 scale (0 no effect, 100 complete control); for Velvetleaf plant response rating (0 to 100 scale): Preemergence, 500 g ai/ha, 0 is no effect, 100 is complete control
In short: as §1

[6] = test system: crabgrass, large (Digitaria sanguinalis); experiment: Test A preemergence; conditions: for Plant response rating, Crabgrass, Large: 125 g ai/ha, preemergence, 0 to 100 scale (0 no effect, 100 complete control); for Crabgrass, Large plant response rating (0 to 100 scale): Preemergence, 500 g ai/ha, 0 is no effect, 100 is complete control
In short: as §1

[7] = test system: pigweed (Amaranthus retroflexus); experiment: Test A preemergence; conditions: for Plant response rating, Pigweed: 125 g ai/ha, preemergence, 0 to 100 scale (0 no effect, 100 complete control); for Pigweed plant response rating (0 to 100 scale): Preemergence, 500 g ai/ha, 0 is no effect, 100 is complete control
[8] = test system: morningglory (Ipomoea spp.); experiment: Test A preemergence; conditions: for Plant response rating, Morningglory: 125 g ai/ha, preemergence, 0 to 100 scale (0 no effect, 100 complete control); for Morningglory plant response rating (0 to 100 scale): Preemergence, 500 g ai/ha, 0 is no effect, 100 is complete control
In short: as §1

[9] = test system: barnyardgrass (Echinochloa crus-galli); experiment: Test B flooded paddy test; conditions: Flood, 250 g ai/ha; 0 to 100 scale where 0 is no effect and 100 is complete control; 13 to 15 d
In short: (§2)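 Plants at 2-leaf stage flooded to 3 cm above soil, with compounds applied directly to paddy water and that depth maintained. Plants kept in greenhouse 13–15 d. Visual rating versus controls on a 0 (no effect) to 100 (complete control) scale.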

[10] = test system: sedge, umbrella (small-flower umbrella sedge, Cyperus difformis); experiment: Test B flooded paddy test; conditions: Flood, 250 g ai/ha; 0 to 100 scale where 0 is no effect and 100 is complete control; 13 to 15 d
In short: as §2

rice (Oryra sativa) = experiment: Test B flooded paddy test; conditions: Flood, 250 g ai/ha; 0 to 100 scale where 0 is no effect and 100 is complete control; 13 to 15 d
In short: as §2

[11] = test system: ducksalad (Heteranthera limosa); experiment: Test B flooded paddy test; conditions: Flood, 250 g ai/ha; 0 to 100 scale where 0 is no effect and 100 is complete control; 13 to 15 d
In short: as §2

corn (Zea mays) [12] = experiment: Test A postemergence
In short: as §1

[13] = test system: wheat (Triticum aestivum); experiment: Test A postemergence
In short: as §1

[14] = test system: barnyardgrass (Echinochloa crus-galli); experiment: Test A postemergence
In short: as §1

[15] = test system: giant foxtail (Setaria faberii); experiment: Test A postemergence
In short: as §1

[16] = test system: velvetleaf (Abutilon theophrasti); experiment: Test A postemergence
In short: as §1

[17] = test system: crabgrass, large (Digitaria sanguinalis); experiment: Test A postemergence
In short: as §1

[18] = test system: pigweed (Amaranthus retroflexus); experiment: Test A postemergence
In short: as §1

[19] = test system: morningglory (Ipomoea spp.); experiment: Test A postemergence
In short: as §1

[20] = 500 g ai/ha, postemergence, 0 to 100 scale, 0 no effect, 100 complete control
[21] = Postemergence, 125 g ai/ha, visual injury, 0 to 100 scale (0 no effect, 100 complete control), approx. 10 d

O=C1NCC(c2cccnc2)C1C(=O)Nc1ccccc1C(F)(F)F (racemic) [Compound 352]
0: Plant response rating, Corn (corn (Zea mays) [1]) | Corn plant response rating (0 to 100 scale) (corn (Zea mays) [1]) | Plant response rating, Wheat [2] | Wheat plant response rating (0 to 100 scale) [2] | Plant response rating, Barnyardgrass [3] | Barnyardgrass plant response rating (0 to 100 scale) [3] | Plant response rating, Foxtail, Giant [4] | Foxtail, Giant plant response rating (0 to 100 scale) [4] | Plant response rating, Velvetleaf [5] | Velvetleaf plant response rating (0 to 100 scale) [5] | Plant response rating, Crabgrass, Large [6] | Crabgrass, Large plant response rating (0 to 100 scale) [6] | Plant response rating, Pigweed [7] | Pigweed plant response rating (0 to 100 scale) [7] | Plant response rating, Morningglory [8] | Morningglory plant response rating (0 to 100 scale) [8] | Plant response rating, Barnyardgrass [9] | Plant response rating, Sedge, Umbrella [10] | Plant response rating, Rice (rice (Oryra sativa)) | Plant response rating, Ducksalad [11] | Plant response rating, Corn (corn (Zea mays) [12]; [20]) | Plant response rating, Corn (corn (Zea mays) [12]; [21]) | Plant response rating, Wheat [13, 20] | Plant response rating, Wheat [13, 21] | Plant response rating, Barnyardgrass [14, 20] | Plant response rating, Barnyardgrass [14, 21] | Plant response rating, Foxtail, Giant [15, 20] | Plant response rating, Foxtail, Giant [15, 21] | Plant response rating, Velvetleaf [16, 20] | Plant response rating, Velvetleaf [16, 21] | Plant response rating, Crabgrass, Large [17, 20] | Plant response rating, Crabgrass, Large [17, 21] | Plant response rating, Pigweed [18, 20] | Plant response rating, Pigweed [18, 21] | Plant response rating, Morningglory [19, 20] | Plant response rating, Morningglory [19, 21]

Nc1cccc(C2CNC(=O)C2C(=O)Nc2cccc(F)c2F)c1 (stereo not drawn) [Compound 353]
0: Plant response rating, Corn (corn (Zea mays) [1]) | Corn plant response rating (0 to 100 scale) (corn (Zea mays) [1]) | Plant response rating, Wheat [2] | Wheat plant response rating (0 to 100 scale) [2] | Plant response rating, Barnyardgrass [3] | Barnyardgrass plant response rating (0 to 100 scale) [3] | Plant response rating, Foxtail, Giant [4] | Foxtail, Giant plant response rating (0 to 100 scale) [4] | Plant response rating, Velvetleaf [5] | Velvetleaf plant response rating (0 to 100 scale) [5] | Plant response rating, Crabgrass, Large [6] | Crabgrass, Large plant response rating (0 to 100 scale) [6] | Plant response rating, Pigweed [7] | Pigweed plant response rating (0 to 100 scale) [7] | Plant response rating, Morningglory [8] | Morningglory plant response rating (0 to 100 scale) [8] | Plant response rating, Barnyardgrass [9] | Plant response rating, Sedge, Umbrella [10] | Plant response rating, Rice (rice (Oryra sativa)) | Plant response rating, Ducksalad [11] | Plant response rating, Corn (corn (Zea mays) [12]; [20]) | Plant response rating, Corn (corn (Zea mays) [12]; [21]) | Plant response rating, Wheat [13, 20] | Plant response rating, Wheat [13, 21] | Plant response rating, Barnyardgrass [14, 20] | Plant response rating, Barnyardgrass [14, 21] | Plant response rating, Foxtail, Giant [15, 20] | Plant response rating, Foxtail, Giant [15, 21] | Plant response rating, Velvetleaf [16, 20] | Plant response rating, Velvetleaf [16, 21] | Plant response rating, Crabgrass, Large [17, 20] | Plant response rating, Crabgrass, Large [17, 21] | Plant response rating, Pigweed [18, 20] | Plant response rating, Pigweed [18, 21] | Plant response rating, Morningglory [19, 20] | Plant response rating, Morningglory [19, 21]
